Row | Compound | melting point
1 | CCOc1nc(N)nc(OC(F)(F)F)n1 | 69 to 71 °C
2 | Cc1ccc(C2COc3c(ccc(O)c3C)C2)cc1 (centres undefined) | 136 to 137 °C
3 | Cn1cc(C2=C(c3c4n(c5ccccc35)CCC(C(N)=O)C4)C(=O)OC2=O)c2ccccc21 (centres undefined) | 307 to 309 °C
4 | CCCCCC=C1SC(=S)N(CC(=O)O)C1=O | 136 to 140 °C
5 | CCCCc1nc2ccccn2c(=O)c1-c1ccc(OS(=O)(=O)C(F)(F)F)cc1 | 106 to 108 °C
6 | CC1CN(S(=O)(=O)c2cc(C#N)ccc2Sc2cc(Cl)ccc2Cl)CC(C)N1 (centres undefined) | 160 to 190 °C
7 | Cc1cc(C)n(-c2nccc(NC3CCCCC3)n2)n1 | 144 to 147 °C
8 | CC1(C)Oc2cc3nonc3cc2C(N2CC(O)CCC2=O)C1O (centres undefined) | 178 to 182 °C
9 | O=C(Nc1nccs1)C(CC1CCCC1)c1ccc(S(=O)(=O)C(F)(F)F)cc1 (centres undefined) | 48 to 52 °C
10 | N#Cc1cccc(-c2ccccn2)n1 | 136 to 137 °C
11 | COc1cc2ncc(C#N)c(Nc3ccc(F)c(Cl)c3)c2cc1NC(=O)C=CCN1CCC(O)C1 (centres undefined) | 215 to 220 °C
12 | O=C(O)CCC(O)c1ccc(-c2ccccc2)cc1 (centres undefined) | 139 to 140 °C
13 | O=C(O)C1CSC(c2cccnc2)N1 (centres undefined) | 135 to 140 °C
14 | Cc1nc(N2CCN(Cc3ccccn3)C2=O)sc1C(=O)NCc1cccnc1 | 58 to 61 °C
15 | CCOc1cc2c(Cl)cc(C)nc2nc1C | 144 to 147 °C
16 | ON=Cc1c(C(F)(F)F)ccc(F)c1F | 111 to 112 °C
17 | CCOC(=O)c1cnn(-c2cccc(Cl)c2)c1N | 115 to 117 °C
18 | COC(=O)C1=C(C)NC(C)=C(C(=O)OCC2(C)OCCO2)C1c1cccc([N+](=O)[O-])c1 (centres undefined) | 143 °C
19 | CNC(=O)N1CCc2[nH]cnc2C1c1ccco1 (centres undefined) | 205 °C
20 | CCCCCCC1(C)Nc2ccccc2-c2c([N+](=O)[O-])cnn21 (centres undefined) | 86 to 88 °C
21 | Cn1c(=S)n(CCN2CCC(Nc3nc4ccccc4n3Cc3ccco3)CC2)c(=O)c2ccccc21 | 188 °C
22 | COCn1ccnc1C(O)(c1ccc(F)cc1)c1ccc(F)cc1 | 133 °C
23 | O=C(NCCN1CC=C(n2c(=O)[nH]c3ccccc32)CC1)c1ccc(F)cc1 | 203 °C
24 | CCOCCOCCn1ccc2c3c(c(-c4ccccc4Cl)cc21)C(=O)NC3=O | 173 °C
25 | CC(C)C1(C)NC(c2nc3ccccc3cc2C=O)=NC1=O (centres undefined) | 226 to 227 °C

Row | Compound | melting point
26 | CC(O)(CNC(=S)Nc1ccc(Br)cc1)C(=O)Nc1ccc([N+](=O)[O-])c(C(F)(F)F)c1 (centres undefined) | 192 to 195 °C
27 | CCOC(=O)c1c(C)cc2nc(C)n(-c3ccccc3Cl)c(=O)c2c1C | 131 to 132 °C
28 | Cn1ccc(N)cc1=O | 200 to 202 °C
29 | CC1(C)CCC(C)(C)c2cc(C(N)C(=O)NCS(=O)(=O)c3ccccc3)ccc21 (centres undefined) | 175 to 176 °C
30 | CCOC(=O)NC(=O)NC(=NC(=O)Nc1ccc(Cl)cc1)OC | 140 to 142 °C
31 | O=C1N[C@@H](SC(c2ccccc2)(c2ccccc2)c2ccccc2)[C@@H]1CO (relative stereo) | 160 to 162 °C
32 | CCCc1sc(-c2ccccc2)nc1OC(=O)NC(C)(C)C | 97 to 98 °C
33 | CCOC(=O)N(c1cccc(C(F)(F)F)c1)c1ccccc1-n1nc(C(=O)O)nc1CCl | 100 to 108 °C
34 | COc1ccc(C2C3=C(COC3=O)Nc3ccc4nc(S)[nH]c4c32)cc1O (centres undefined) | 334 to 337 °C
35 | CN1OC(CNc2ccccc2)CC1(Cn1ccnc1)c1ccc(Cl)cc1 (centres undefined) | 159 to 160 °C
36 | CON(C(=O)c1cn(C)nc1C(F)F)C(C)C1CCC(C)=CC1(C)C (centres undefined) | 95 to 105 °C
37 | CCOC(=O)c1cnc2c(cnn2Cc2ccco2)c1O | 103 to 106 °C
38 | COc1cc(S(C)=O)ccc1-c1nc2ccc(C(C)(C)CNS(C)(=O)=O)cc2[nH]1 (centres undefined) | 126 to 128 °C
39 | CCN(C(=O)C(=O)O)c1ccc2c(C)cc(=O)oc2c1 | 142 °C
40 | CCOc1ccccc1-c1nc2c(C(N)=O)cccc2c(=O)[nH]1 | 252 to 254 °C
41 | O=C(Nc1ccc(N2CCNCC2)c(C(F)(F)F)c1)c1ccc(F)c(OCc2cnc3ccccc3c2)c1 | 76 to 78 °C
42 | CCCN(Cc1ccc(-c2ccccc2-c2nc(=O)o[nH]2)cc1)c1nn(C)cc1C(=O)OCC | 182 to 183 °C
43 | O=C(CCC(=O)N1CCC(c2ccc(Cl)cc2)CC1)c1ccc2c(c1)CCNCC2 | 148 to 149 °C
44 | CS(=O)(=O)Nc1cc2occc(=O)c2cc1Oc1ccccc1C(=O)O | 243 to 246 °C
45 | CCOC(=O)C(=O)c1csc(NC(=O)Nc2ccccc2F)n1 | 219 to 225 °C
46 | CC(=O)c1ccc(CC(C)OS(=O)(=O)c2ccc(C)cc2)s1 (racemic) | 101 to 103 °C
47 | CN1CCN(c2ccc(-c3cnc4c(c3)C(O)CCN4)cn2)CC1 (centres undefined) | 124 to 128 °C
48 | CC(CS)C(=O)N(C)c1cncc(C(=O)O)c1 (centres undefined) | 190 to 192 °C
49 | CCCCOc1ccc(Cl)cc1C(=O)NCCc1ccc(CC(=O)OCC)cc1 | 80 °C
